System: Caspase-1
Format: cell-based
Conditions: 50 μM

## CCO[C@@H]1OC(=O)C[C@@H]1NC(=O)[C@@H]1CCCN1C(=O)[C@@H](NC(=O)c1ccc(N)c(Cl)c1)C(C)(C)C [VX765]
  effect of Caspase-1 inhibitor on IL-1β release: inhibited IL-1ß release
